In brackets after ≈: the same amount, converted by molar mass.
Experiments:
Format in all cases: cell-based
[1] = test system: S. marcescens IAM 1184; test: MIC against standard strains (Table 1), S. marcescens IAM 1184; conditions: Serratia marcescens, IAM1184, Muller-Hinton agar, overnight 37° C., read-out: MIC (minimum growth inhibitory concentration)
Method: (§1) The minimum growth inhibitory concentration (MIC, μg/ml) of the compounds for each of the 25 standard laboratory strains (standard strains) shown in Table 1 was determined in accordance with the standard method of the Japan Chemotherapical Society (Chemotherapy, 29, 76-79 (1981) under "Re-revision of the measuring methods of minimum growth inhibitory concentration (MIC)").
(§2) That is, by using each test strain cultured overnight at 37° C. in a Muller-Hinton broth, there was prepared a bacterial solution with a cell density of 1×10^6 CFU/ml in the same broth. The bacterial solution was inoculated into the Muller-Hinton agar media each containing respectively one test agent (i.e., compound) and, after overnight incubation at 37° C., the minimum concentration that inhibited growth of the bacteria was determined and expressed as MIC.
(§3) Staphylococcus aureus 167 and Staphylococcus aureus 195 used in the test were MRSA. CTM (cefotiam) and FMOX (flomoxef) were used as the control agents.

[2] = test system: P. aeruginosa NCTC 10490; test: MIC against standard strains (Table 1), P. aeruginosa NCTC 10490; conditions: Pseudomonas aeruginosa, NCTC10490, Muller-Hinton agar, overnight 37° C., read-out: MIC (minimum growth inhibitory concentration)
Method: as §1, §2, §3

[3] = test system: S. aureus Smith; test: MIC against standard strains (Table 1), S. aureus Smith; conditions: Staphylococcus aureus, Muller-Hinton agar, overnight 37° C., read-out: MIC (minimum growth inhibitory concentration)
Method: as §1, §2, §3

[4] = test system: S. aureus 167; test: MIC against standard strains (Table 1), S. aureus 167 (MRSA); conditions: Staphylococcus aureus, Muller-Hinton agar, overnight 37° C., read-out: MIC (minimum growth inhibitory concentration)
Method: as §1, §2, §3

[5] = test system: E. coli CSH2(RE45); test: MIC against standard strains (Table 1), E. coli CSH2(RE45); conditions: Escherichia coli, read-out: MIC (minimum growth inhibitory concentration)
Method: as §1, §2, §3

[6] = test system: S. epidemidis IAM 1296; test: MIC against standard strains (Table 1), S. epidemidis IAM 1296; conditions: Muller-Hinton agar, overnight 37° C., read-out: MIC (minimum growth inhibitory concentration)
Method: as §1, §2, §3

[7] = test system: S. aureus 209p JC-1; test: MIC against standard strains (Table 1), S. aureus 209p JC-1; conditions: Staphylococcus aureus, Muller-Hinton agar, overnight 37° C., read-out: MIC (minimum growth inhibitory concentration)
Method: as §1, §2, §3

[8] = test system: E. coli CSH2(RK1); test: MIC against standard strains (Table 1), E. coli CSH2(RK1); conditions: Escherichia coli, read-out: MIC (minimum growth inhibitory concentration)
Method: as §1, §2, §3

[9] = test system: S. aureus 195; test: MIC against standard strains (Table 1), S. aureus 195 (MRSA); conditions: Staphylococcus aureus, Muller-Hinton agar, overnight 37° C., read-out: MIC (minimum growth inhibitory concentration)
Method: as §1, §2, §3

[10] = test system: P. vulugaris OX-19; test: MIC against standard strains (Table 1), P. vulugaris OX-19; conditions: Muller-Hinton agar, overnight 37° C., read-out: MIC (minimum growth inhibitory concentration)
Method: as §1, §2, §3

[11] = test system: E. cloacae ATCC 13407; test: MIC against standard strains (Table 1), E. cloacae ATCC 13407; conditions: Enterobacter cloacae, ATCC13407, Muller-Hinton agar, overnight 37° C., read-out: MIC (minimum growth inhibitory concentration)
Method: as §1, §2, §3

[12] = test system: K. pneuminiae IFO 3317; test: MIC against standard strains (Table 1), K. pneuminiae IFO 3317; conditions: Muller-Hinton agar, overnight 37° C., read-out: MIC (minimum growth inhibitory concentration)
Method: as §1, §2, §3

[13] = test system: M. luteus ATCC 9341; test: MIC against standard strains (Table 1), M. luteus ATCC 9341; conditions: Micrococcus luteus, ATCC9341, Muller-Hinton agar, overnight 37° C., read-out: MIC (minimum growth inhibitory concentration)
Method: as §1, §2, §3

[14] = test system: P. aeruginosa AKR17; test: MIC against standard strains (Table 1), P. aeruginosa AKR17; conditions: Pseudomonas aeruginosa, Muller-Hinton agar, overnight 37° C., read-out: MIC (minimum growth inhibitory concentration)
Method: as §1, §2, §3

[15] = test system: A. calcoaceticos T59; test: MIC against standard strains (Table 1), A. calcoaceticos T59; conditions: Muller-Hinton agar, overnight 37° C., read-out: MIC (minimum growth inhibitory concentration)
Method: as §1, §2, §3

[16] = test system: M. morganii IFO 3848; test: MIC against standard strains (Table 1), M. morganii IFO 3848; conditions: Morganella morganii, IFO3848, Muller-Hinton agar, overnight 37° C., read-out: MIC (minimum growth inhibitory concentration)
Method: as §1, §2, §3

[17] = test system: S. marcescens No. 16-2; test: MIC against standard strains (Table 1), S. marcescens No. 16-2; conditions: Serratia marcescens, NO.162, Muller-Hinton agar, overnight 37° C., read-out: MIC (minimum growth inhibitory concentration)
Method: as §1, §2, §3

[18] = test system: A. faecalis ATCC 3750; test: MIC against standard strains (Table 1), A. faecalis ATCC 3750; conditions: Alcaligenes faecalis, ATCC3750, Muller-Hinton agar, overnight 37° C., read-out: MIC (minimum growth inhibitory concentration)
Method: as §1, §2, §3

[19] = test system: E. coli JC-2; test: MIC against standard strains (Table 1), E. coli JC-2; conditions: Escherichia coli, JC2, Muller-Hinton agar, overnight 37° C., read-out: MIC (minimum growth inhibitory concentration)
Method: as §1, §2, §3

[20] = test system: C. freundii ATCC 8090; test: MIC against standard strains (Table 1), C. freundii ATCC 8090; conditions: Citrobacter freundii, ATCC8090, Muller-Hinton agar, overnight 37° C., read-out: MIC (minimum growth inhibitory concentration)
Method: as §1, §2, §3

[21] = test system: P. mirabilis IFO 3849; test: MIC against standard strains (Table 1), P. mirabilis IFO 3849; conditions: Proteus mirabilis, IFO3849, Muller-Hinton agar, overnight 37° C., read-out: MIC (minimum growth inhibitory concentration)
Method: as §1, §2, §3

[22] = test system: K. pneuminiae No. 42; test: MIC against standard strains (Table 1), K. pneuminiae No. 42; conditions: Muller-Hinton agar, overnight 37° C., read-out: MIC (minimum growth inhibitory concentration)
Method: as §1, §2, §3

[23] = test system: B. subtilis ATCC 6633; test: MIC against standard strains (Table 1), B. subtilis ATCC 6633; conditions: Bacillus subtilis, ATCC6633, Muller-Hinton agar, overnight 37° C., read-out: MIC (minimum growth inhibitory concentration)
Method: as §1, §2, §3

[24] = test system: E. cloacae Nek39; test: MIC against standard strains (Table 1), E. cloacae Nek39; conditions: Enterobacter cloacae, Muller-Hinton agar, overnight 37° C., read-out: MIC (minimum growth inhibitory concentration)
Method: as §1, §2, §3

[25] = test system: P. cepacia CN 9113; test: MIC against standard strains (Table 1), P. cepacia CN 9113; conditions: Burkholderia cepacia, CN9113, Muller-Hinton agar, overnight 37° C., read-out: MIC (minimum growth inhibitory concentration)
Method: as §1, §2, §3

SMILES | MIC [1] | MIC [2] | MIC [3] | MIC [4] | MIC [5] | MIC [6] | MIC [7] | MIC [8] | MIC [9] | MIC [10] | MIC [11] | MIC [12] | MIC [13] | MIC [14] | MIC [15] | MIC [16] | MIC [17] | MIC [18] | MIC [19] | MIC [20] | further results
CN(C)CCn1nnnc1SCC1=C(C(=O)O)N2C(=O)[C@@H](NC(=O)Cc3csc(N)n3)[C@H]2SC1 [CTM, cefotiam, reference compound] | 3.13 µg/mL (≈ 5.95 µM) | 100 µg/mL (≈ 190 µM) | 0.78 µg/mL (≈ 1.48 µM) | > 100 µg/mL | 0.39 µg/mL (≈ 0.742 µM) | 0.39 µg/mL (≈ 0.742 µM) | 0.78 µg/mL (≈ 1.48 µM) | 0.2 µg/mL (≈ 0.38 µM) | > 100 µg/mL | 0.39 µg/mL (≈ 0.742 µM) | > 100 µg/mL | 0.2 µg/mL (≈ 0.38 µM) | 0.39 µg/mL (≈ 0.742 µM) | > 100 µg/mL | > 100 µg/mL | 0.2 µg/mL (≈ 0.38 µM) | > 100 µg/mL | 3.13 µg/mL (≈ 5.95 µM) | 0.2 µg/mL (≈ 0.38 µM) | 0.78 µg/mL (≈ 1.48 µM) | MIC [21]: 0.39 µg/mL (≈ 0.742 µM); MIC [22]: 0.39 µg/mL (≈ 0.742 µM); MIC [23]: 0.39 µg/mL (≈ 0.742 µM); MIC [24]: > 100 µg/mL; MIC [25]: > 100 µg/mL
CO/N=C(\C(=O)N[C@@H]1C(=O)N2C(C(=O)[O-])=C(/C=C/C[n+]3cccc(-c4csc(N)n4)c3)CS[C@H]12)c1csc(N)n1 [Compound 5, 7β-[2-(2-aminothiazol-4-yl)-2-syn-methoxyiminoacetamido]-3-[(E)-3-[3-(2-aminothiazol-4-yl)pyridinio]-1-propenyl]-3-cephem-4-carboxylate] | 0.025 µg/mL (≈ 0.0418 µM) | 1.56 µg/mL (≈ 2.61 µM) | 0.39 µg/mL (≈ 0.651 µM) | 100 µg/mL (≈ 167 µM) | 0.2 µg/mL (≈ 0.334 µM) | 0.2 µg/mL (≈ 0.334 µM) | 0.39 µg/mL (≈ 0.651 µM) | 0.05 µg/mL (≈ 0.0835 µM) | 12.5 µg/mL (≈ 20.9 µM) | 0.025 µg/mL (≈ 0.0418 µM) | 0.2 µg/mL (≈ 0.334 µM) | 0.025 µg/mL (≈ 0.0418 µM) | 0.025 µg/mL (≈ 0.0418 µM) | > 100 µg/mL | 12.5 µg/mL (≈ 20.9 µM) | 0.025 µg/mL (≈ 0.0418 µM) | 1.56 µg/mL (≈ 2.61 µM) | 0.78 µg/mL (≈ 1.3 µM) | 0.025 µg/mL (≈ 0.0418 µM) | 0.025 µg/mL (≈ 0.0418 µM) | MIC [21]: 0.1 µg/mL (≈ 0.167 µM); MIC [22]: 0.2 µg/mL (≈ 0.334 µM); MIC [23]: 0.39 µg/mL (≈ 0.651 µM); MIC [24]: 3.13 µg/mL (≈ 5.23 µM); MIC [25]: 50 µg/mL (≈ 83.5 µM)
Nc1nc(/C(=N/O)C(=O)N[C@@H]2C(=O)N3C(C(=O)[O-])=C(/C=C/C[n+]4cccc(-c5csc(N)n5)c4)CS[C@H]23)cs1 [Compound 12, 7β-[2-(2-aminothiazol-4-yl)-2-syn-hydroxyiminoacetamido]-3-[(E)-3-[3-(2-aminothiazol-4-yl)pyridinio]-1-propenyl]-3-cephem-4-carboxylate] | 0.1 µg/mL (≈ 0.171 µM) | 3.13 µg/mL (≈ 5.35 µM) | 0.1 µg/mL (≈ 0.171 µM) | 25 µg/mL (≈ 42.8 µM) | 0.1 µg/mL (≈ 0.171 µM) | 0.05 µg/mL (≈ 0.0855 µM) | 0.1 µg/mL (≈ 0.171 µM) | 0.2 µg/mL (≈ 0.342 µM) | 1.56 µg/mL (≈ 2.67 µM) | 0.05 µg/mL (≈ 0.0855 µM) | 0.39 µg/mL (≈ 0.667 µM) | 0.05 µg/mL (≈ 0.0855 µM) | 0.05 µg/mL (≈ 0.0855 µM) | > 100 µg/mL | 12.5 µg/mL (≈ 21.4 µM) | 0.025 µg/mL (≈ 0.0428 µM) | 12.5 µg/mL (≈ 21.4 µM) | 1.56 µg/mL (≈ 2.67 µM) | 0.05 µg/mL (≈ 0.0855 µM) | 0.05 µg/mL (≈ 0.0855 µM) | MIC [21]: 0.1 µg/mL (≈ 0.171 µM); MIC [22]: 0.1 µg/mL (≈ 0.171 µM); MIC [23]: 0.2 µg/mL (≈ 0.342 µM); MIC [24]: 6.25 µg/mL (≈ 10.7 µM); MIC [25]: > 100 µg/mL

From US5534508A, “Cephem compounds and antimicrobial agents” (Katayama Seiyakusyo Co., Ltd., priority 1993, dated 1996)
